Experimental data from article PMC6199744, “Development of Chemical Proteomics for the Folateome and Analysis of the Kinetoplastid Folateome” (ACS Infectious Diseases, 2018).
Like-named read-outs stand apart in the source and are kept apart here.

Legend:
Type in all cases: binding
[1] = target: T1, HeLa cell extract proteins (Homo sapiens, UniProt O43175)
T1 construct: endogenous in cells; host or cells: HeLa cell extract
T1 sequence (O43175 1-533): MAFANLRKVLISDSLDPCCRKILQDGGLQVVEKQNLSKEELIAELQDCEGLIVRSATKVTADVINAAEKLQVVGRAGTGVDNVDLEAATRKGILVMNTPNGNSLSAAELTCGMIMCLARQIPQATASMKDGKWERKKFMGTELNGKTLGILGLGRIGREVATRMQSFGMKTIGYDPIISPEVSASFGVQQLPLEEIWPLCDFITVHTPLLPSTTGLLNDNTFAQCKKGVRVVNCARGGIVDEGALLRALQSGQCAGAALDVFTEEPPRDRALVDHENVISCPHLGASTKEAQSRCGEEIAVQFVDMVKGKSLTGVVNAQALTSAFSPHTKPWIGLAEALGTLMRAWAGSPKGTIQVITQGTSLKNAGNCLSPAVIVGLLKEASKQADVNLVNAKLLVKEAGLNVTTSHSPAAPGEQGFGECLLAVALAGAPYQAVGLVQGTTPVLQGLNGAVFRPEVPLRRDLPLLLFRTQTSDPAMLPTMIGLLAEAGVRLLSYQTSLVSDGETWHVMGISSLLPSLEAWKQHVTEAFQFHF

[2] = target: T2, HeLa cell extract proteins (Homo sapiens, UniProt O75352)
T2 construct: endogenous in cells; host or cells: HeLa cell extract
T2 sequence (O75352 1-247): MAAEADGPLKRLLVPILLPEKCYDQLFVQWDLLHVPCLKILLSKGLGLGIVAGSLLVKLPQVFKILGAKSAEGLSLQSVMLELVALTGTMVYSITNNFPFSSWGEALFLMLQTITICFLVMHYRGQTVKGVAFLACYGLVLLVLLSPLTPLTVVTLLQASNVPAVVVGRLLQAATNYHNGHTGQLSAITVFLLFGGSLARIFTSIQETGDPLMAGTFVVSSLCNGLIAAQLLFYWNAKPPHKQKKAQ

[3] = target: T3, HeLa cell extract proteins (Homo sapiens, UniProt O75947)
T3 construct: endogenous in cells; host or cells: HeLa cell extract

[4] = target: T4, HeLa cell extract proteins (Homo sapiens, UniProt P10515)
T4 construct: endogenous in cells; host or cells: HeLa cell extract
T4 sequence (P10515 87-647): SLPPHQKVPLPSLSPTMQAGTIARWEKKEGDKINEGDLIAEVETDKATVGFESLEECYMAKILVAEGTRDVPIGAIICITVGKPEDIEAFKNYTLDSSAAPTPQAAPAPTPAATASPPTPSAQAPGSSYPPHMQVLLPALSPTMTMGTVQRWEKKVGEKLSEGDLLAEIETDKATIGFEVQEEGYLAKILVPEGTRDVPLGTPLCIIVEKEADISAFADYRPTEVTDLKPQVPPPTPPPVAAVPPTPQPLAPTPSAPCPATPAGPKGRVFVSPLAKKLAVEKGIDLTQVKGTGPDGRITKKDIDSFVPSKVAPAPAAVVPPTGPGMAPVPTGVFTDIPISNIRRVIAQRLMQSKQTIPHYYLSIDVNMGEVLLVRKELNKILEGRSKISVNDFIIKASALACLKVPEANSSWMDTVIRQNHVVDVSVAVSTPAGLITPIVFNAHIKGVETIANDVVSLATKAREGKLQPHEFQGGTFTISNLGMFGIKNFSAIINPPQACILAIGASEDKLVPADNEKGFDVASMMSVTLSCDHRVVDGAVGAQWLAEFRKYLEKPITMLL

[5] = target: T5, HeLa cell extract proteins (Homo sapiens, UniProt P35637)
T5 construct: endogenous in cells; host or cells: HeLa cell extract
T5 sequence (P35637 1-526): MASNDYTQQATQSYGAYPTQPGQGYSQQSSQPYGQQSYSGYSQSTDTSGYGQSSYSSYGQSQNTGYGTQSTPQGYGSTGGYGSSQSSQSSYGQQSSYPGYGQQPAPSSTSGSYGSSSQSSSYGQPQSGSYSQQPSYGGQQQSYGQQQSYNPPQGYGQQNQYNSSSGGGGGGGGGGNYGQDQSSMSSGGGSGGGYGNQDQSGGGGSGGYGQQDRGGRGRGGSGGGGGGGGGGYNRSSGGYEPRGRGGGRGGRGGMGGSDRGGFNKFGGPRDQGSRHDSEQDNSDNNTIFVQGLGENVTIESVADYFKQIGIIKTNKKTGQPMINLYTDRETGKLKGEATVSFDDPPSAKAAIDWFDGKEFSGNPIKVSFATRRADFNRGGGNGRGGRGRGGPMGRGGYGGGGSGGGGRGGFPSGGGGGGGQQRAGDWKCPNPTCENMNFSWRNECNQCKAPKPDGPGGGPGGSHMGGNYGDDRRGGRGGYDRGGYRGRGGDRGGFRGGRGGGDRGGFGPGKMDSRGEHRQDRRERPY

[6] = target: T6, HeLa cell extract proteins (Homo sapiens, UniProt P78371)
T6 construct: endogenous in cells; host or cells: HeLa cell extract
T6 sequence (P78371 1-535): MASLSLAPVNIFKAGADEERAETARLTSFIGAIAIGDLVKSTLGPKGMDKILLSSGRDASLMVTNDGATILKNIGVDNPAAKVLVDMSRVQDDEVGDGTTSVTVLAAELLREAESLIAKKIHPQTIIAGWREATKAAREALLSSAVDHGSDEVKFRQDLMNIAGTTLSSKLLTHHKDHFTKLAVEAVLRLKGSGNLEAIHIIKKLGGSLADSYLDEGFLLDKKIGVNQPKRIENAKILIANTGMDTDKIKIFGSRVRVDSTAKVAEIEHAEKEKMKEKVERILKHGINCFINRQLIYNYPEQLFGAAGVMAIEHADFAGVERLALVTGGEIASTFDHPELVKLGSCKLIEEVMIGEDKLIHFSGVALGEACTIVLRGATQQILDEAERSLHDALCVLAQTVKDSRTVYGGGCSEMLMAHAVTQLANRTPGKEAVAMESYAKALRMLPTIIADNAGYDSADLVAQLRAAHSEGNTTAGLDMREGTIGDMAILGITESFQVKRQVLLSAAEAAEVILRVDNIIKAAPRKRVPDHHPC

[7] = target: T7, HeLa cell extract proteins (Homo sapiens, UniProt Q13310)
T7 construct: endogenous in cells; host or cells: HeLa cell extract

[8] = target: T8, HeLa cell extract proteins (Homo sapiens, UniProt Q96EY8)
T8 construct: endogenous in cells; host or cells: HeLa cell extract
T8 sequence (Q96EY8 33-250): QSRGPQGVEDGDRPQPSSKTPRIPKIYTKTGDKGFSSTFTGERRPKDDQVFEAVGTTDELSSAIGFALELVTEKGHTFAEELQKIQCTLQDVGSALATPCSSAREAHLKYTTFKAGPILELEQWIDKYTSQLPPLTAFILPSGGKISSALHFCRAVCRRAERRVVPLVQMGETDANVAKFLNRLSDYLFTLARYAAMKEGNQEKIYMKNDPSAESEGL

[9] = HeLa, protein FUS (FUS-LIKE PROTEIN (FRAGMENT))
[10] = HeLa, protein DLAT (DIHYDROLIPOYLLYSINE-RESIDUE ACETYLTRANSFERASE COMPONENT OF PYRUVATE DEHYDROGENASE COMPLEX, MITOCHONDRIAL)

T3 sequence (O75947 whole entry): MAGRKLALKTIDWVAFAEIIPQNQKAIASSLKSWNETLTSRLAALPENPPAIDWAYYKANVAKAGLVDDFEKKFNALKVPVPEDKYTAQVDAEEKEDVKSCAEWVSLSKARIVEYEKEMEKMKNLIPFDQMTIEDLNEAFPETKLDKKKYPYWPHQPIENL
T7 sequence (Q13310 whole entry): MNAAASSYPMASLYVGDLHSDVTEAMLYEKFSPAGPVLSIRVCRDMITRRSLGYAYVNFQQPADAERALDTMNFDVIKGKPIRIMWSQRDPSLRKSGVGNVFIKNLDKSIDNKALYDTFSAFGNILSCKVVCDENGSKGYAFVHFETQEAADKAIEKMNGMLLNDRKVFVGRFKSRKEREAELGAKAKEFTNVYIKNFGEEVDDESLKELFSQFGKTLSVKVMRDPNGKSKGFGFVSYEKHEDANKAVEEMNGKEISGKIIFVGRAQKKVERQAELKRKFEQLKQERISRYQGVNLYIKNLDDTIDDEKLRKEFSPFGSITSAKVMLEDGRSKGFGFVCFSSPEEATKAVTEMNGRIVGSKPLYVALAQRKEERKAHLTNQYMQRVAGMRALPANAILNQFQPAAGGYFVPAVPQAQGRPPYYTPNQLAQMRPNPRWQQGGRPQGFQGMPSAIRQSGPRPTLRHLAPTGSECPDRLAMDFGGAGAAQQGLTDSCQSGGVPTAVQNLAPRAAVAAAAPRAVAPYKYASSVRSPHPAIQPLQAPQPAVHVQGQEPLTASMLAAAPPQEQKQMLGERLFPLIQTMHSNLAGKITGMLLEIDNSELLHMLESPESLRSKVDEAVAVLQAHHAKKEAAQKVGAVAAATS

Compound	fold changes relative to vehicle control ([1]; protein PHGDH, HeLa)	fold changes relative to vehicle control ([2]; HeLa, protein MPDU1)	fold changes relative to vehicle control ([3]; HeLa, captured protein ATP5H)	fold changes relative to vehicle control [5, 9]	fold changes relative to vehicle control ([6]; HeLa, protein CCT2)	fold changes relative to vehicle control ([7]; HeLa, protein PABPC4)	fold changes relative to vehicle control ([8]; HeLa, protein MMAB (COB))	fold changes relative to vehicle control ([2]; protein MPDU1, HeLa)	fold changes relative to vehicle control ([3]; protein ATP5H, HeLa)	fold changes relative to vehicle control ([4]; protein DLAT, HeLa)	fold changes relative to vehicle control ([5]; protein FUS, HeLa)	fold changes relative to vehicle control ([6]; protein CCT2, HeLa)	fold changes relative to vehicle control ([7]; captured protein PABPC4, HeLa)	fold changes relative to vehicle control ([8]; HeLa, protein MMAB)	also measured
Nc1nc2c(c(=O)[nH]1)N(C=O)C(CNc1ccc(C(=O)N[C@@H](CCC(=O)O)C(=O)O)cc1)CN2 (some centres unmarked) [LEU, leucovorin]	0.88	0.93	0.91	1.06	1.05	0.83	0.99	–	–	–	–	–	–	–	fold changes relative to vehicle control ([4]; HeLa, protein DLAT ([…]-RESIDUE ACETYLT[…] OF PYRUVATE DEH[…], MITOCHONDRIAL)): 1.05
Nc1nc2[nH]cc(CCc3ccc(C(=O)N[C@@H](CCC(=O)O)C(=O)O)cc3)c2c(=O)[nH]1 [PTX, pemetrexed]	–	–	–	–	–	–	–	–	–	–	–	–	–	–	fold changes relative to vehicle control [1]: 0.93; fold changes relative to vehicle control [2]: 1; fold changes relative to vehicle control [3]: 1.03; fold changes relative to vehicle control [4]: 0.96; fold changes relative to vehicle control [5]: 1.03; fold changes relative to vehicle control [6]: 1.11; fold changes relative to vehicle control [7]: 0.93; fold changes relative to vehicle control [8]: 0.85
CCCCCCOc1ccc(Cc2cnc(N)nc2N)cc1 [compound 1]	0.99	–	–	–	–	–	–	1.04	1.11	0.98	1.05	1.33	0.86	0.95	–
CCCCCCOc1cccc(Cc2cnc(N)nc2N)c1 [compound 2]	1.25	–	–	–	–	–	–	0.89	0.88	0.39	1.21	1.75	1.2	0.94	–
Nc1nc2cccc(-c3ccccc3)c2n1Cc1ccc(Cl)c(Cl)c1 [compound 3]	1.5	–	–	–	–	–	–	1.05	0.94	1.1	1.02	1.13	0.94	0.96	–
NCCOCCOCC(=O)Nc1nc2ncc(CNc3ccc(C(=O)NC(CCC(=O)O)C(=O)O)cc3)nc2c(=O)[nH]1 (centres unmarked) [compound 6]	1.06	1.08	0.92	1.09	1.23	1.06	0.51	–	–	–	–	–	–	–	fold changes relative to vehicle control [4, 10]: 0.92
NCCCNc1ccc(C(=O)NC(CCC(=O)O)C(=O)O)cc1 (centres unmarked) [compound 7]	1.06	0.99	0.96	1.25	0.95	1	0.94	–	–	–	–	–	–	–	fold changes relative to vehicle control [4, 10]: 0.97
